36 molecules from US20260216348A1, “IRAK DEGRADATION AGENT AND USE THEREOF” (Increland, priority 2023, published 2026) can be followed below.

SMILES strings stand for the structures.

What is called DC50 is the concentration at which degradation of the target reaches its halfway point. As usually defined, the IC50 is the concentration at which inhibition is half-maximal.

The first assay deals with T1, IRAK4 (Homo sapiens, UniProt Q9NWZ3).
T1 construct: Effect of the Compounds on IRAK4 Protein Degradation in THP1 Cells; endogenous in cells; host or cells: THP-1 cells
T1 sequence (Q9NWZ3 1-460): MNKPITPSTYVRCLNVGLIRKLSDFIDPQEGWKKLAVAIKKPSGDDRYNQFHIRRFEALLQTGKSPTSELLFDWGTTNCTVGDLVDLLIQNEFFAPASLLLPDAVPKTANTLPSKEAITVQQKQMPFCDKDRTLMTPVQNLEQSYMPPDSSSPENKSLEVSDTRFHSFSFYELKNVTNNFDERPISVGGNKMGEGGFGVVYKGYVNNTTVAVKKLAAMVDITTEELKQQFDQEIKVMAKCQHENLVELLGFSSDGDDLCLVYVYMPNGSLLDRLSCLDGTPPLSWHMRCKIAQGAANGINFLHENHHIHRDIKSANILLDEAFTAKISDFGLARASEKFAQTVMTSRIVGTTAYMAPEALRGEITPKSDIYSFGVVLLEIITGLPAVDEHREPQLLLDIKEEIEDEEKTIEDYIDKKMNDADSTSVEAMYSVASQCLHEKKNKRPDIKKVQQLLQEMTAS
The experiment in a line: IRAK4 protein degradation in THP1 cells (Western blot). Type of assay: cell-based. Conditions: THP-1 cells, 24 h. As for the experimental part: THP-1 cells were seeded into a 96-well cell culture plate, with 2×10^5 cells and 90 μL of culture medium per well. The cell culture plate was cultured in an incubator with 5% CO2 at 37° C. overnight. The compound was dissolved in DMSO to prepare a stock solution, which was serially diluted into a series of working solutions with a 5-fold concentration gradient using the culture medium and then added to the aforementioned 96-well plate at 10 μL per well. The cell culture plate was further incubated for 24 h in a 5% CO2 incubator at 37° C. After incubation, the 96-well plate was centrifuged and the supernatant was discarded, followed by adding 40 μL of cell lysis buffer containing […]/phosphatase inhibitors to each well for sufficient lysis on an ice bath. Protein quantification was performed using the BCA protein quantification kit, followed by the preparation of Western blot samples. […] After electrophoresis, protein transfer was performed using a PVDF membrane under ice bath conditions for 1 h. After the transfer was completed, the PVDF membrane was blocked with gentle shaking in 5% skim milk at room temperature for 1 h. After blocking, the PVDF membrane was incubated with the primary antibody overnight with gentle shaking at 4° C. The PVDF membrane was washed 3 times with TBST, then the secondary antibody was added and incubated for 1 h with gentle shaking at room temperature, followed by washing of the PVDF membrane with TBST for 3 times. After the washes were completed, the chemiluminescent substrate was added; the PVDF membrane was scanned using a Clinx imager, semi-quantitative analysis was performed with ImageJ software, and the DC50 was calculated using GraphPad Prism 8.0.
Turning to `CN(C)c1cc2nn([C@H]3CC[C@H](CN4CC[C@H](F)[C@@H](n5cc6cc(N7CCC(=O)NC7=O)ccc6n5)C4)CC3)cc2cc1NC(=O)c1cnn2cccnc12` [TM-214], the DC50 stood at 1.21 nM.

In a further assay the test system is LPS/IL-1β-induced IL-6 secretion in human peripheral blood mononuclear cells (PBMCs). Briefly: Inhibition of LPS/IL-1β-induced IL-6 secretion in human PBMCs (IL-6 ELISA). The format is cell-based. Conditions: PBMC, LPS 10 ng/mL + IL-1β 20 ng/mL, 24 h pre-incubation, 20 h stimulation. As for the experimental part:
This experiment was carried out in RPMI 1640 medium containing 10% FBS and 1% penicillin/streptomycin, with each of the compounds at an initial test concentration of 1 μM.
The compound was dissolved in DMSO to prepare a stock solution, which was serially diluted into some working solutions with a 5-fold concentration gradient using the culture medium and then added to a 96-well plate at 10 μL per well. PBMCs (Batch No.: P122101102C; Milecell Biotechnology Inc.) were counted and diluted to a cell concentration of about 1.3×10^6 cells/mL, and then added to the aforementioned compound-containing 96-well plate at 150 μL per well. The system was mixed well and incubated in a 5% CO2 incubator at 37° C. for 24 h. Then 5 μL of LPS (final concentration: 10 ng/mL) and 5 μL of IL-1β (final concentration: 20 ng/mL) were added to each well, respectively, and the culture was continued for 20 h in a 5% CO2 incubator at 37° C. After incubation, the 96-well plate was centrifuged at 2000 rpm for 4 min. The supernatant was collected and diluted 200-fold, then detected using an IL-6 ELISA kit. The OD450 values were read, and converted to IL-6 concentrations based on a standard curve. The dose-response curves were fitted using GraphPad 8.0 to calculate the IC50 values.
(In general: An ELISA detects its analyte on a solid surface through an enzyme-linked reagent.)
On to `C[C@@H]1CN(c2cc3nn([C@H]4CC[C@H](CN5CC6CN(c7nc8cc(N9CCC(=O)NC9=O)ccc8s7)CC6C5)CC4)cc3cc2NC(=O)c2cnn3cccnc23)CCO1` (stereo partly drawn) [TM-63], for which the IC50 came out at 8.91 nM.

For `CN(C)c1cc2nn(C3CCN(C[C@H]4CC[C@H](n5cc6ccc(N7CCC(=O)NC7=O)cc6n5)CC4)CC3)cc2cc1NC(=O)c1cnn2cccnc12` [TM-52], the IC50 was 18.7 nM.

`C[C@@H]1CN(c2cc3nn([C@H]4CC[C@H](CN5CCC(n6cc7cc(N8CCC(=O)NC8=O)ccc7n6)CC5)CC4)cc3cc2NC(=O)c2cnn3cccnc23)CCO1` [TM-46]: the IC50 stood at 7.46 nM.

In the case of `CN(C)c1cc2nn(C3CCN(CC4CCN(c5nc6cc(N7CCC(=O)NC7=O)ccc6s5)CC4)CC3)cc2cc1NC(=O)c1cnn2cccnc12` [TM-128], the IC50 was found to be 36.6 nM.

For `CN(C)c1cc2nn([C@H]3CC[C@H](CN4CCN(c5nc6ccc(N7CCC(=O)NC7=O)cn6n5)CC4)CC3)cc2cc1NC(=O)c1cnn2cccnc12` [TM-110], the IC50 came to 21.6 nM.

On to `CN(C)c1cc2nn([C@H]3CC[C@H](CN4CCC(c5cc6cc(N7CCC(=O)NC7=O)ccn6n5)CC4)CC3)cc2cc1NC(=O)c1cnn2cccnc12` [TM-175], for which the IC50 came out at 13.2 nM.

Consider `CN(C)c1cc2nn([C@H]3CC[C@H](CN4CCN(c5nc6ccc(N7CCC(=O)NC7=O)cc6s5)CC4)CC3)cc2cc1NC(=O)c1cnn2cccnc12` [TM-55], for which the IC50 is 1.61 nM.

For `C[C@@H]1CN(c2cc3nn([C@H]4CC[C@H](CN5CCC(n6cc7cc(C8CCC(=O)NC8=O)ccc7n6)CC5)CC4)cc3cc2NC(=O)c2cnn3cccnc23)CCO1` (stereo partly drawn) [TM-47], the IC50 is 3.06 nM.

Regarding `CN(C)c1cc2nn([C@H]3CC[C@H](CN4CCCN(c5nc6ccc(N7CCC(=O)NC7=O)cc6s5)CC4)CC3)cc2cc1NC(=O)c1cnn2cccnc12` [TM-150], the IC50 amounted to 6.94 nM.

On to `C[C@@H]1CN(C[C@H]2CC[C@H](n3cc4cc(NC(=O)c5cnn6cccnc56)c(N(C)C)cc4n3)CC2)CCN1c1nc2ccc(N3CCC(=O)NC3=O)cc2s1` [TM-65], for which the IC50 stood at 2.26 nM.

In the case of `CN(C)c1cc2nn([C@H]3CC[C@H](CN4C5CCC4CN(c4nc6ccc(N7CCC(=O)NC7=O)cc6o4)C5)CC3)cc2cc1NC(=O)c1cnn2cccnc12` [TM-146], the IC50 is 44.1 nM.

On to `CN(C)c1cc2nn(C3CCN(C[C@H]4CC[C@H](n5cc6cc(N7CCC(=O)NC7=O)ccc6n5)CC4)CC3)cc2cc1NC(=O)c1cnn2cccnc12` [TM-53], for which the IC50 is 6.14 nM.

As for `C[C@@H]1CN(c2cc3nn([C@H]4CC[C@H](CN5CCC(n6cc7ccc(C8CCC(=O)NC8=O)cc7n6)CC5)CC4)cc3cc2NC(=O)c2cnn3cccnc23)CCO1` (stereo partly drawn) [TM-48], the IC50 was 1.61 nM.

`C[C@@H]1CN(c2cc3nn([C@H]4CC[C@H](CN5CCC(n6cc7ccc(N8CCC(=O)NC8=O)cc7n6)CC5)CC4)cc3cc2NC(=O)c2cnn3cccnc23)CCO1` [TM-45]: the 50% inhibitory concentration (IC50) is 8.81 nM.

As for `CN(C)c1cc2nn([C@H]3CC[C@H](CN4C[C@@H]5C[C@H]4CN5c4nc5ccc(N6CCC(=O)NC6=O)cc5s4)CC3)cc2cc1NC(=O)c1cnn2cccnc12` [TM-74], the IC50 was 0.86 nM.

As to `O=C1CCC(c2ccc3cn(C4CCN(C[C@H]5CC[C@H](n6cc7cc(NC(=O)c8cnn9cccnc89)c(N8CCOCC8)cc7n6)CC5)CC4)nc3c2)C(=O)N1` (stereo partly drawn) [TM-1], the 50% inhibitory concentration (IC50) stood at 5.86 nM.

Turning to `O=C1CCN(c2ccc3nn(C4CCN(C[C@H]5CC[C@H](n6cc7cc(NC(=O)c8cnn9cccnc89)c(N8CCOCC8)cc7n6)CC5)CC4)cc3c2)C(=O)N1` [TM-44], the IC50 stood at 10.2 nM.

Regarding `CN(C)c1cc2nn([C@H]3CC[C@H](CN4C[C@H]5C[C@@H]4CN5c4nc5ccc(N6CCC(=O)NC6=O)cc5o4)CC3)cc2cc1NC(=O)c1cnn2cccnc12` [TM-83], the IC50 turned out to be 44.1 nM.

With `CN(C)c1cc2nn([C@H]3CC[C@H](CN4CCN(c5nc6cc(F)c(N7CCC(=O)NC7=O)cc6o5)CC4)CC3)cc2cc1NC(=O)c1cnn2cccnc12` [TM-85], the IC50 is 8.41 nM.

Consider `CN(C)c1cc2nn([C@H]3CC[C@H](CN4CCN(c5nc6ccc(N7CCC(=O)NC7=O)cc6o5)CC4)CC3)cc2cc1NC(=O)c1cnn2cccnc12` [TM-75], for which the IC50 worked out at 13.2 nM.

Turning to `C[C@@H]1CN(c2cc3nn([C@H]4CC[C@H](CN5CCN(c6nc7ccc(N8CCC(=O)NC8=O)cc7s6)CC5)CC4)cc3cc2NC(=O)c2cnn3cccnc23)CCO1` [TM-57], the IC50 was 10.2 nM.

In the case of `O=C1CCC(c2ccc3nn(C4CCN(C[C@H]5CC[C@H](n6cc7cc(NC(=O)c8cnn9cccnc89)c(N8CCOCC8)cc7n6)CC5)CC4)cc3c2)C(=O)N1` (stereo partly drawn) [TM-2], the IC50 is 5.07 nM.

`C[C@@H]1CN(c2cc3nn(C4CCN(CC5CCC(n6cc7cc(C8CCC(=O)NC8=O)ccc7n6)CC5)CC4)cc3cc2NC(=O)c2cnn3cccnc23)CCO1` (stereo partly drawn) [TM-49]: the IC50 came to 1.33 nM.

As to `CN(C)c1cc2nn([C@H]3CC[C@H](CN4CC5(CCN(c6nc7ccc(N8CCC(=O)NC8=O)cn7n6)CC5)C4)CC3)cc2cc1NC(=O)c1cnn2cccnc12` [TM-148], the IC50 was determined as 11.6 nM.

With `CN(C)c1cc2nn([C@H]3CC[C@H](CN4CCC(C5Nc6cc(N7CCC(=O)NC7=O)ccc6C5=O)CC4)CC3)cc2cc1NC(=O)c1cnn2cccnc12` (stereo partly drawn) [TM-144], the IC50 was found to be 38.4 nM.

Take `C[C@@H]1CN(c2cc3nn([C@H]4CC[C@H](CN5CC6CN(c7nc8ccc(N9CCC(=O)NC9=O)cc8s7)CC6C5)CC4)cc3cc2NC(=O)c2cnn3cccnc23)CCO1` (stereo partly drawn) [TM-62]: the half-inhibitory concentration (IC50) amounted to 2.48 nM.

Regarding `CN(C)c1cc2nn(C3CCC(CN4CC5CN(c6nc7ccc(N8CCC(=O)NC8=O)cc7s6)CC5C4)CC3)cc2cc1NC(=O)c1cnn2cccnc12` (stereo not drawn) [TM-60], the IC50 is 1.94 nM.

Consider `CN(C)c1cc2nn([C@H]3CC[C@H](CN4CCN(c5nc6cc(N7CCC(=O)NC7=O)ccc6o5)CC4)CC3)cc2cc1NC(=O)c1cnn2cccnc12` [TM-145], for which the IC50 is 2.62 nM.

Turning to `C[C@@H]1CN(c2cc3nn([C@H]4CC[C@H](CN5CCN(c6nc7cc(N8CCC(=O)NC8=O)ccc7s6)CC5)CC4)cc3cc2NC(=O)c2cnn3cccnc23)CCO1` [TM-56], the IC50 came out at 8.81 nM.

As to `C[C@@H]1CN(C[C@H]2CC[C@H](n3cc4cc(NC(=O)c5cnn6cccnc56)c(N(C)C)cc4n3)CC2)CC[C@H]1n1cc2ccc(N3CCC(=O)NC3=O)cc2n1` [TM-26], the IC50 was found to be 0.54 nM.

Regarding `CN(C)c1cc2nn([C@H]3CC[C@H](CN4CC5(CCN(c6nc7cc(F)c(N8CCC(=O)NC8=O)cc7o6)CC5)C4)CC3)cc2cc1NC(=O)c1cnn2cccnc12` [TM-90], the IC50 was 1.44 nM.

With `C[C@@H]1CN(c2cc3nn(C4CCN(CC5CCC(n6cc7ccc(C8CCC(=O)NC8=O)cc7n6)CC5)CC4)cc3cc2NC(=O)c2cnn3cccnc23)CCO1` (stereo partly drawn) [TM-50], the IC50 amounted to 4.65 nM.

Take `CN(C)c1cc2nn([C@H]3CC[C@H](CN4CCN(c5nc6cc(N7CCC(=O)NC7=O)ccc6s5)CC4)CC3)cc2cc1NC(=O)c1cnn2cccnc12` [TM-54]: the IC50 was 3.06 nM.

Turning to `CN(C)c1cc2nn(C3CCC(CN4CC5CN(c6nc7cc(N8CCC(=O)NC8=O)ccc7s6)CC5C4)CC3)cc2cc1NC(=O)c1cnn2cccnc12` (stereo not drawn) [TM-61], the IC50 was determined as 1.15 nM.

With `C[C@H]1CN(C[C@H]2CC[C@H](n3cc4cc(NC(=O)c5cnn6cccnc56)c(N(C)C)cc4n3)CC2)CCN1c1nc2ccc(N3CCC(=O)NC3=O)cc2s1` [TM-66], the IC50 stood at 19.6 nM.
